Tests used:
Experiment in all cases: apparent dissociation constant (pKDapp, Kinobeads competition, Cheng-Prusoff corrected) (-log10 M); higher = tighter binding
ABL2 = ABL2 (UniProt P42684); settings: affinity matrix / lysate: Kinobeads, mixed HEK293/K-562/placenta lysate
AKT1 = AKT1 (UniProt P31749); settings: affinity matrix / lysate: Kinobeads, mixed HEK293/K-562/placenta lysate
CAMK2G = CAMK2G (UniProt Q13555); settings: affinity matrix / lysate: Kinobeads, mixed HEK293/K-562/placenta lysate
CAMKK2 = CAMKK2 (UniProt Q96RR4); settings: affinity matrix / lysate: Kinobeads, mixed HEK293/K-562/placenta lysate
CDC42BPG = CDC42BPG (UniProt Q6DT37); settings: affinity matrix / lysate: Kinobeads, mixed HEK293/K-562/placenta lysate
CDK8 = CDK8 (UniProt P49336); settings: affinity matrix / lysate: Kinobeads, mixed HEK293/K-562/placenta lysate
DSTYK = DSTYK (UniProt Q6XUX3); settings: affinity matrix / lysate: Kinobeads, mixed HEK293/K-562/placenta lysate
DYRK1A = DYRK1A (UniProt Q13627); settings: affinity matrix / lysate: Kinobeads, mixed HEK293/K-562/placenta lysate
EPHA7 = EPHA7 (UniProt Q15375); settings: affinity matrix / lysate: Kinobeads, mixed HEK293/K-562/placenta lysate
Chain of EPHA7 (Q15375 whole entry, looked up): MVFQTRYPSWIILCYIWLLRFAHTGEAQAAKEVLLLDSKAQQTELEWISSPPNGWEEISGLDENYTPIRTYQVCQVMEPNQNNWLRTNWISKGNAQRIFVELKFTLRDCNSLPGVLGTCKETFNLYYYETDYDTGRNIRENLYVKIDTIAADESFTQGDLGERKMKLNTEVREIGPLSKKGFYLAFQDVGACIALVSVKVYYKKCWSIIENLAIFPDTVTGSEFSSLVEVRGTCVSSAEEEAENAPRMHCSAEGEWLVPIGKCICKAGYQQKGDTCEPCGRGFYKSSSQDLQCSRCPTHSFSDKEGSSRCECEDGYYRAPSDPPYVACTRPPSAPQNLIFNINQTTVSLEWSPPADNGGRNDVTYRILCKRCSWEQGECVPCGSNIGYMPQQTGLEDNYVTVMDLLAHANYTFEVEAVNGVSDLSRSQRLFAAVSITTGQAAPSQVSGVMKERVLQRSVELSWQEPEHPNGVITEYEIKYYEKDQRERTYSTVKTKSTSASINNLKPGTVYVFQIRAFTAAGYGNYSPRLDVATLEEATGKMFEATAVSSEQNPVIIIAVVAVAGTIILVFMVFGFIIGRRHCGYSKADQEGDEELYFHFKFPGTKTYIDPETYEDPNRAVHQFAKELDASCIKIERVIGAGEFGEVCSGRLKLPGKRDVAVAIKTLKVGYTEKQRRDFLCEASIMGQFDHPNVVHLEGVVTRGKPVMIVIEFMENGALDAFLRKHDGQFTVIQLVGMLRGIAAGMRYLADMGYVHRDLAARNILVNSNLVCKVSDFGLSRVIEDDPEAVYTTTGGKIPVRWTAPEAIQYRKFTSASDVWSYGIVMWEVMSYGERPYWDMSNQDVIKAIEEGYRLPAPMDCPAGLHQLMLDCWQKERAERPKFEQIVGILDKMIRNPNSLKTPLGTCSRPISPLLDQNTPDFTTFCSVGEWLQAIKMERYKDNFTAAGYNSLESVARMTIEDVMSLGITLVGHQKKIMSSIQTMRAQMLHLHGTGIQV

ERN1 = ERN1 (UniProt O75460); settings: affinity matrix / lysate: Kinobeads, mixed HEK293/K-562/placenta lysate
FES = FES (UniProt P07332); settings: affinity matrix / lysate: Kinobeads, mixed HEK293/K-562/placenta lysate
FGFR1 = FGFR1 (UniProt P11362); settings: affinity matrix / lysate: Kinobeads, mixed HEK293/K-562/placenta lysate
GSK3B = GSK3B (UniProt P49841); settings: affinity matrix / lysate: Kinobeads, mixed HEK293/K-562/placenta lysate
HIPK3 = HIPK3 (UniProt Q9H422); settings: affinity matrix / lysate: Kinobeads, mixed HEK293/K-562/placenta lysate
Chain of HIPK3 (Q9H422 whole entry, looked up): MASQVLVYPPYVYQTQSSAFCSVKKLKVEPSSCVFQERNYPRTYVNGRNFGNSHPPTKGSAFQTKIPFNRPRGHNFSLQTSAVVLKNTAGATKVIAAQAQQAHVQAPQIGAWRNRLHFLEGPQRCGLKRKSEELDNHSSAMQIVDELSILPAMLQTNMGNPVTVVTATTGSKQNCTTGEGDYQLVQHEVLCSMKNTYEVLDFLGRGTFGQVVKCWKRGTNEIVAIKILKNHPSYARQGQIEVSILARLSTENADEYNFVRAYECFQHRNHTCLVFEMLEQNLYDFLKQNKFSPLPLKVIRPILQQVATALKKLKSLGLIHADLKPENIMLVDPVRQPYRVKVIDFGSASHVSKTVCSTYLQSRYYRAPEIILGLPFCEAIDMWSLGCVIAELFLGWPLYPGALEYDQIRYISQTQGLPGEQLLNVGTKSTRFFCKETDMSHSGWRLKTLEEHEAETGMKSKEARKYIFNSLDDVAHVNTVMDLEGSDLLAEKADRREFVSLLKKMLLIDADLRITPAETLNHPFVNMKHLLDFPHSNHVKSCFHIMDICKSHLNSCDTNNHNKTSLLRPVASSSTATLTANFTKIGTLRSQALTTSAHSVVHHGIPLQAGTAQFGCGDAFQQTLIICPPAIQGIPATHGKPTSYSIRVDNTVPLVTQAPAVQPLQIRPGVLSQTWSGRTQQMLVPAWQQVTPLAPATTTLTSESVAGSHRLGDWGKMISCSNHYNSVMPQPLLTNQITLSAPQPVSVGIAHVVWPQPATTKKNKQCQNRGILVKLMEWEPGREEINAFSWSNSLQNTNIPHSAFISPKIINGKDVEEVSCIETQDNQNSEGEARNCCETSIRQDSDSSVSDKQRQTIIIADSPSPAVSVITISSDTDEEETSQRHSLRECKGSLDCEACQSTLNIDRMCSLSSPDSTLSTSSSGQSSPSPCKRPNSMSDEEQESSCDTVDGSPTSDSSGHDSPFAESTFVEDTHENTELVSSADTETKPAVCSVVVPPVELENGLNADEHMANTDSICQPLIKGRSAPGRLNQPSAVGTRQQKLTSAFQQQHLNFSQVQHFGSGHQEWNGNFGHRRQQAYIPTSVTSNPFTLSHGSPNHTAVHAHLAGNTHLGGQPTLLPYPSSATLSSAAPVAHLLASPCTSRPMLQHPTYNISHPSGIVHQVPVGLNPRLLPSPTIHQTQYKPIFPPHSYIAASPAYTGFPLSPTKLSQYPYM

IKBKB = IKBKB (UniProt O14920); settings: affinity matrix / lysate: Kinobeads, mixed HEK293/K-562/placenta lysate
KIT = KIT (UniProt P10721); settings: affinity matrix / lysate: Kinobeads, mixed HEK293/K-562/placenta lysate
LOC100128443 = settings: affinity matrix / lysate: Kinobeads, mixed HEK293/K-562/placenta lysate
MAPK1 = MAPK1 (UniProt P28482); settings: affinity matrix / lysate: Kinobeads, mixed HEK293/K-562/placenta lysate
Chain of MAPK1 (P28482 whole entry): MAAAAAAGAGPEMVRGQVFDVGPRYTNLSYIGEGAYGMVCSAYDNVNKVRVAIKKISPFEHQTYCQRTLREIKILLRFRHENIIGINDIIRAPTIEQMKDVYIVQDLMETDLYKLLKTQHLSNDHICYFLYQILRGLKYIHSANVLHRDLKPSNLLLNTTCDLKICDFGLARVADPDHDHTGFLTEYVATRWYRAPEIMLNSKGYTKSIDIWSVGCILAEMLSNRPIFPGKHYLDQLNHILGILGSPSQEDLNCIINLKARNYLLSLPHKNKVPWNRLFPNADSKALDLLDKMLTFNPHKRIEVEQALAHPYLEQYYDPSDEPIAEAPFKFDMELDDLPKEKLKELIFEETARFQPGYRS

MAPKAPK3 = MAPKAPK3 (UniProt Q16644); settings: affinity matrix / lysate: Kinobeads, mixed HEK293/K-562/placenta lysate
MAST2 = MAST2 (UniProt Q6P0Q8); settings: affinity matrix / lysate: Kinobeads, mixed HEK293/K-562/placenta lysate
MKNK2 = MKNK2 (UniProt Q9HBH9); settings: affinity matrix / lysate: Kinobeads, mixed HEK293/K-562/placenta lysate
Chain of MKNK2 (Q9HBH9 whole entry, looked up): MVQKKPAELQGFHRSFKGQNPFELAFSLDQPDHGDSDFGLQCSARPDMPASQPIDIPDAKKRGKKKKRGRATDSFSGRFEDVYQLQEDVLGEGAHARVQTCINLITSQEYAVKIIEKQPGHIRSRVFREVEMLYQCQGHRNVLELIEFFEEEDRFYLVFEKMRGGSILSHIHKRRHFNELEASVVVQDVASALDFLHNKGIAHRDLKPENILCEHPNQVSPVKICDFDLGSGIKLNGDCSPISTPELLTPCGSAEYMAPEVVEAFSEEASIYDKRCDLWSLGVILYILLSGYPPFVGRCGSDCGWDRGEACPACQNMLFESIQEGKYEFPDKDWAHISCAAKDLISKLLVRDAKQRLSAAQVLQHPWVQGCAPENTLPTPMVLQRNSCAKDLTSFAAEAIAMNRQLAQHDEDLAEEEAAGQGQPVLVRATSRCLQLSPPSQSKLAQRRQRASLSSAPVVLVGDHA

NEK2 = NEK2 (UniProt P51955); settings: affinity matrix / lysate: Kinobeads, mixed HEK293/K-562/placenta lysate
Chain of NEK2 (P51955 whole entry): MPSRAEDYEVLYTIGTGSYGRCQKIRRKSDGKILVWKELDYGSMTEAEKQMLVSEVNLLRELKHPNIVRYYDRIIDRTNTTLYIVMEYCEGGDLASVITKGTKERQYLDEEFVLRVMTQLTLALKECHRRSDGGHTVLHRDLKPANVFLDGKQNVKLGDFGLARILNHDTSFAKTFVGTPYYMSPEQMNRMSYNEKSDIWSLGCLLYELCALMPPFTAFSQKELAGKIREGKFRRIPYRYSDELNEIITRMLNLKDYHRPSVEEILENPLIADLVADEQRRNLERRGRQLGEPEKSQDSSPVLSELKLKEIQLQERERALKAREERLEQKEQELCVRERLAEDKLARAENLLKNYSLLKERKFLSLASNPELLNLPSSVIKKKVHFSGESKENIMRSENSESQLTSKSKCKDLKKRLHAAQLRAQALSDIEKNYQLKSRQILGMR

PCTK1 = PCTK1 (UniProt Q00536); settings: affinity matrix / lysate: Kinobeads, mixed HEK293/K-562/placenta lysate
PDGFRB = PDGFRB (UniProt P09619); settings: affinity matrix / lysate: Kinobeads, mixed HEK293/K-562/placenta lysate
PIK3C2A = PIK3C2A (UniProt O00443); settings: affinity matrix / lysate: Lipid Kinobeads, mixed HeLa/Jurkat/K-562 lysate
PRKAA2 = PRKAA2 (UniProt P54646); settings: affinity matrix / lysate: Kinobeads, mixed HEK293/K-562/placenta lysate
PRKX = PRKX (UniProt P51817); settings: affinity matrix / lysate: Kinobeads, mixed HEK293/K-562/placenta lysate
Chain of PRKX (P51817 whole entry): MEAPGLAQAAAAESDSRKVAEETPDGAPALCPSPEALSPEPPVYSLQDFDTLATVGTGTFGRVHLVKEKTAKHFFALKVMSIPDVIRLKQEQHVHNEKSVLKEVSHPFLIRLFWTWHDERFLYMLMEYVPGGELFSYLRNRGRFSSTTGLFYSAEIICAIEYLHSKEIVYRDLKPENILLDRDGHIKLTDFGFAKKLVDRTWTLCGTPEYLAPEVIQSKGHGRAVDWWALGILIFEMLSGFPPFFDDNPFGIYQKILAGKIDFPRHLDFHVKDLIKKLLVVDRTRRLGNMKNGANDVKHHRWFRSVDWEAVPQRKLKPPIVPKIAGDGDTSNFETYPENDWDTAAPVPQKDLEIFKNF

STK39 = STK39 (UniProt Q9UEW8); settings: affinity matrix / lysate: Kinobeads, mixed HEK293/K-562/placenta lysate
STK4 = STK4 (UniProt Q13043); settings: affinity matrix / lysate: Kinobeads, mixed HEK293/K-562/placenta lysate
TAOK2 = TAOK2 (UniProt Q9UL54); settings: affinity matrix / lysate: Kinobeads, mixed HEK293/K-562/placenta lysate
TAOK3 = TAOK3 (UniProt Q9H2K8); settings: affinity matrix / lysate: Kinobeads, mixed HEK293/K-562/placenta lysate
TGFBR2 = TGFBR2 (UniProt P37173); settings: affinity matrix / lysate: Kinobeads, mixed HEK293/K-562/placenta lysate
Chain of TGFBR2 (P37173 whole entry): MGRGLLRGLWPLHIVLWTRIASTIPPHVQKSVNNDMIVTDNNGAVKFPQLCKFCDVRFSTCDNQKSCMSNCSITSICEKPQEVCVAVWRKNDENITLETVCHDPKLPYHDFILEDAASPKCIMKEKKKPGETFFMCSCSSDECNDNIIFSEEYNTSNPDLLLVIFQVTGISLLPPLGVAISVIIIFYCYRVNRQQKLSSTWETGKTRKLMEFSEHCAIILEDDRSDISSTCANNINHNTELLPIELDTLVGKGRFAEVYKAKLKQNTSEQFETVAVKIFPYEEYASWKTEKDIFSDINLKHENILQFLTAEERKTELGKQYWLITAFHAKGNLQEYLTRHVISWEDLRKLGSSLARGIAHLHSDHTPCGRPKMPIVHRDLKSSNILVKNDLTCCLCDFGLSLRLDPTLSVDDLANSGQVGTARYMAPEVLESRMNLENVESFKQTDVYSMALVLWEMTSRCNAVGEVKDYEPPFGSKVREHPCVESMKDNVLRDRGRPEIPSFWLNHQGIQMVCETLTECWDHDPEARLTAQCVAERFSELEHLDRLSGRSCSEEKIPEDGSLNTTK

TNK1 = TNK1 (UniProt Q13470); settings: affinity matrix / lysate: Kinobeads, mixed HEK293/K-562/placenta lysate

Measured: apparent dissociation constant (-log10 M)

Chain of AKT1 (P31749 whole entry): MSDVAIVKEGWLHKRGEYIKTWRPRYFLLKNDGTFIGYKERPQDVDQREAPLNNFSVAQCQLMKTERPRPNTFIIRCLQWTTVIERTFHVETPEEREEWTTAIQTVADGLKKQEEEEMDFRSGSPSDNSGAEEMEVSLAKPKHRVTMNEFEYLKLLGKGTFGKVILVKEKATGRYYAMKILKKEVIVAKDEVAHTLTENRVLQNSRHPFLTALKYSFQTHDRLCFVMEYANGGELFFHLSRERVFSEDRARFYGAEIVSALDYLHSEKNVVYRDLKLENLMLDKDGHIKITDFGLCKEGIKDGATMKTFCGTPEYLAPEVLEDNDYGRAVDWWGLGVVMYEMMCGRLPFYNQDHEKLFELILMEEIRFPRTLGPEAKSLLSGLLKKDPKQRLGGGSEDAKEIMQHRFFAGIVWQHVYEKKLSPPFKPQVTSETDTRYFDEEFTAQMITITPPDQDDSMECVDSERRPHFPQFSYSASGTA

COc1ccc(-c2ccc3c(N4CCOC[C@@H]4C)nc(N4CCOC[C@@H]4C)nc3n2)cc1CO [AZD8055]
< 6: ABL2 | AKT1 | CAMK2G | CAMKK2 | CDC42BPG | CDK8 | DSTYK | DYRK1A | EPHA7 | ERN1 | FES | FGFR1 | GSK3B | HIPK3 | IKBKB | KIT | LOC100128443 | MAPK1 | MAPKAPK3 | MAST2 | MKNK2 | NEK2 | PCTK1 | PDGFRB | PIK3C2A | PRKAA2 | PRKX | STK39 | STK4 | TAOK2 | TAOK3 | TGFBR2 | TNK1

CCNC(=O)Nc1ccc(-c2nc(N3CCOC[C@@H]3C)c3c(n2)C(C)(C)S(=O)(=O)C3)cc1 [CZ415]
< 6: ABL2 | AKT1 | CAMK2G | CAMKK2 | CDC42BPG | CDK8 | DSTYK | DYRK1A | EPHA7 | ERN1 | FES | FGFR1 | GSK3B | HIPK3 | IKBKB | KIT | LOC100128443 | MAPK1 | MAPKAPK3 | MAST2 | MKNK2 | NEK2 | PCTK1 | PDGFRB | PIK3C2A | PRKAA2 | PRKX | STK39 | STK4 | TAOK2 | TAOK3 | TGFBR2 | TNK1

From the supplement of paper PMC6315032
